Results taken from patent publication US8022225B2, “Triazole derivative” (Taisho Pharmaceutical Co., Ltd, priority 2004, dated 2011).
Where two headings read alike, the source gives them in different places.

Target: T1, human Edg-1(S1P1) (Homo sapiens, UniProt P21453)
T1 construct: expressed in transfected cells; host or cells: HEK-293
Test: Cell system binding test: inhibition of [3H]-S1P binding to Edg-1(S1P1) gene transferred HEK-293 cells
Conditions: [3H]-S1P 10 nM
Description: Cells (1×10^5 cells/well) obtained as described above were seeded in poly-L-lysine-coated 96-well plates (Corning Incorporated), and then incubated in a 5% carbon dioxide gas incubator for 12 hours at 37° C. with the use of an MEM medium (Invitrogen Corporation) containing 100 U/mL of penicillin, 100 μg/mL of streptomycin, a 1% MEM nonessential amino acid solution, and 10% FCS. […] After the cells were washed twice with the buffer, they were solubilized with 100 μL of Opti Phase Supermix (produced by Perkin-Elmer), and measured for radioactivity by means of Micro Beta (produced by Perkin-Elmer).
Inhibition rate(%)=[1−(A−C)/(B−C)]×100

[1] = 10 μM compound, read-out: Cell system binding test % inhibition (10 μM)
[2] = test compound 10^-5 M, 1 hour, read-out: Edg-1(S1P1) binding inhibition rate (cell system binding test)

T1 sequence (P21453 whole entry): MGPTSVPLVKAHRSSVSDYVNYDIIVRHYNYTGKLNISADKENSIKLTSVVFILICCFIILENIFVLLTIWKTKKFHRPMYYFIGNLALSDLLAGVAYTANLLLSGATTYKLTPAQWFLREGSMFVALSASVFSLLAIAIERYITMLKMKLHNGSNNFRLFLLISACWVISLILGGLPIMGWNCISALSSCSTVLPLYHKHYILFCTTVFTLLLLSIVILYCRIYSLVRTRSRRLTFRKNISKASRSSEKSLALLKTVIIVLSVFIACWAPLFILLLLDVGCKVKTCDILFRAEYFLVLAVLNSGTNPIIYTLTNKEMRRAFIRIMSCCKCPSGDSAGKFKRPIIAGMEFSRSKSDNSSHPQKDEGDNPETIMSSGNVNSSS

Structure (SMILES)	inhibition at 10 µM [1] [%]	inhibition at 10 µM [2] [%]
C=CCSc1nnc([C@@H](Cc2ccccc2)NS(=O)(=O)c2ccc(Cl)cc2)n1CCCC [Compound 145]	46	
C=CCSc1nnc([C@@H](Cc2ccccc2)NS(=O)(=O)c2ccc(Cl)cc2)n1CC(C)C [Compound 147]	75.2	
C=CCSc1nnc([C@@H](Cc2ccccc2)NS(=O)(=O)c2ccc(Cl)cc2)n1C(C)CC (stereo partly shown) [Compound 149]	63.4	
C=CCSc1nnc([C@@H](Cc2ccccc2)NS(=O)(=O)c2ccc(Cl)cc2)n1CCOC [Compound 151]	41.6	
C=CCSc1nnc([C@@H](Cc2ccccc2)NS(=O)(=O)c2ccc(Cl)cc2)n1CCN1CCOCC1 [Compound 153]	26.8	
C=CCSc1nnc([C@@H](Cc2ccccc2)NS(=O)(=O)c2ccc(Cl)cc2)n1C1CCCC1 [Compound 164]	40.4	
CCn1c(OC)nnc1[C@@H](C)NS(=O)(=O)c1c(C)cc(C)cc1C [Compound 225]	94	
CCn1c(OC)nnc1[C@@H](C)NS(=O)(=O)Cc1ccccc1[N+](=O)[O-] [Compound 234]	90.9	
CCCCCCCCS(=O)(=O)N[C@H](C)c1nnc(OC)n1CC [Compound 236]	98.9	
CCCS(=O)(=O)N[C@H](C)c1nnc(OC)n1CC [Compound 239]	92.7	
CCn1c(OC)nnc1[C@@H](C)NS(=O)(=O)Cc1ccccc1 [Compound 244]	92.3	
CCn1c(OC)nnc1[C@@H](C)NS(=O)(=O)c1c(C)nn(C)c1Cl [Compound 253]	83.4	
CCn1c(OC)nnc1[C@@H](C)NS(=O)(=O)c1c(C)noc1C [Compound 254]	84.6	
CCn1c(OC)nnc1[C@@H](C)NS(=O)(=O)c1ccc(C(=O)OC)o1 [Compound 256]	95.6	
CCn1c(OC)nnc1[C@@H](C)NS(=O)(=O)c1ccccc1C(=O)OC [Compound 259]	86.8	
CCn1c(OC)nnc1[C@@H](C)NS(=O)(=O)c1ccccc1OC(F)(F)F [Compound 276]	88.9	

Structure (SMILES)	inhibition at 10 µM [1] [%]	inhibition at 10 µM [2] [%]
CCn1c(OC)nnc1[C@@H](C)NS(=O)(=O)Cc1cccc(C(F)(F)F)c1 [Compound 295]	66.1	
CCn1c(OC)nnc1[C@@H](C)NS(=O)(=O)CC(c1ccccc1)c1ccccc1 [Compound 297]	23.8	
CCn1c(OC)nnc1[C@@H](C)NS(=O)(=O)Cc1cccc([N+](=O)[O-])c1 [Compound 304]	79.8	
CCn1c(OC)nnc1[C@@H](C)NS(=O)(=O)CCCOc1ccc(OC)cc1 [Compound 318]	68.5	
CCn1c(OC)nnc1[C@@H](C)NS(=O)(=O)Cc1ccccn1 [Compound 323]	64.4	
CCn1c(OC)nnc1[C@@H](C)NS(=O)(=O)c1cccc(Oc2ccccc2OC)c1 [Compound 324]	88.1	
CCn1c(OC)nnc1[C@@H](C)NS(=O)(=O)Cc1cccnc1 [Compound 325]	36.5	
CCn1c(OC)nnc1[C@@H](C)NS(=O)(=O)Cc1ccncc1 [Compound 329]	38.5	
CCn1c(OC)nnc1[C@@H](C)NS(=O)(=O)CCN1C(=O)c2ccccc2C1=O [Compound 331]	23.9	
CCn1c(OC)nnc1[C@@H](C)NS(=O)(=O)CC1CCCCC1 [Compound 333]	92.8	
CCCCCCCCCCS(=O)(=O)N[C@H](C)c1nnc(OC)n1CC [Compound 334]	54.7	
CCn1c(OC)nnc1[C@@H](C)NS(=O)(=O)c1cnoc1C [Compound 336]	89.3	
CCn1c(OC)nnc1[C@@H](C)NS(=O)(=O)c1sc(C)nc1C [Compound 339]	92.1	
CCn1c(OC)nnc1[C@@H](C)NS(=O)(=O)c1cccc2nsnc12 [Compound 340]	77.5	
CCn1c(OC)nnc1[C@@H](C)NS(=O)(=O)c1ccccc1-c1ccccc1 [Compound 370]	32.3	
CCn1c(OC)nnc1[C@@H](C)NS(=O)(=O)c1nc(C)cs1 [Compound 423]	59.2	

The next lines start with the values.

inhibition at 10 µM [1] [%]	inhibition at 10 µM [2] [%]	Structure (SMILES)
89.3		CCn1c(SCc2ccc(C(C)(C)C)cc2)nnc1C(C)NS(=O)(=O)c1ccc(Cl)cc1 (stereo not shown) [Compound 89]
88.3		C=CCSc1nnc([C@@H](C)NS(=O)(=O)c2ccc(Cl)cc2)n1C [Compound 92]
71.5		C=CCSc1nnc(C(CC)NS(=O)(=O)c2ccc(Cl)cc2)n1C (stereo not shown) [Compound 105]
77		CCCC(NS(=O)(=O)c1ccc(Cl)cc1)c1nnc(SCc2ccccc2)n1C (stereo not shown) [Compound 126]
63.6		CCCC(NS(=O)(=O)c1ccc(Cl)cc1)c1nnc(SCc2ccc(C)cc2)n1C (stereo not shown) [Compound 127]
48.9		CCn1c([C@@H](C)NS(=O)(=O)c2ccc(Cl)cc2)nnc1[S+](C)[O-] (stereo partly drawn) [Compound 180, 4-Chloro-N-{(1R)-1-[4-ethyl-5-(methylsulfinyl)-4H-1,2,4-triazol-3-yl]ethyl}benzenesulfonamide]
85.6		CCn1c(OC)nnc1[C@@H](C)NS(=O)(=O)c1ccccc1Cl [Compound 194]
95.9		CCn1c(OC)nnc1[C@@H](C)NS(=O)(=O)c1c(Cl)cccc1Cl [Compound 219]
93.9		CCn1c(OC)nnc1[C@@H](C)NS(=O)(=O)c1ccc(S(C)(=O)=O)cc1 [Compound 228]
89.6		CCn1c(OC)nnc1[C@@H](C)NS(=O)(=O)c1ccc(C(C)(C)CC)cc1 [Compound 271]
70.9		CCn1c(OC)nnc1[C@@H](C)NS(=O)(=O)c1ccc(Oc2ccccc2)cc1 [Compound 278]
101		CCn1c(OC)nnc1[C@@H](C)NS(=O)(=O)c1ccc(F)cc1F [Compound 279]
91		CCn1c(OC)nnc1[C@@H](C)NS(=O)(=O)c1ccccc1F [Compound 280]
73.9		CCn1c(OC)nnc1[C@@H](C)NS(=O)(=O)c1ccccc1I [Compound 283]
31.8		CCn1c(OC)nnc1[C@@H](C)NS(=O)(=O)Cc1ccc(Cl)cc1 [Compound 293]
64.5		CCn1c(OC)nnc1[C@@H](C)NS(=O)(=O)Cc1ccc(F)cc1 [Compound 294]
85.7		CCn1c(OC)nnc1[C@@H](C)NS(=O)(=O)c1c(F)cccc1F [Compound 298]
95		CCn1c(OC)nnc1[C@@H](C)NS(=O)(=O)c1cc(Cl)ccc1OC [Compound 300]
78.3		CCn1c(OC)nnc1[C@@H](C)NS(=O)(=O)c1ccc(CCC(=O)OC)cc1 [Compound 301]
86.5		CCn1c(OC)nnc1[C@@H](C)NS(=O)(=O)Cc1cccc(Cl)c1 [Compound 305]
92.9		CCn1c(OC)nnc1[C@@H](C)NS(=O)(=O)c1cc(Cl)ccc1F [Compound 316]
35.5		CCn1c(OC)nnc1[C@@H](C)NS(=O)(=O)c1ccccc1OC [Compound 332]

inhibition at 10 µM [1] [%]	inhibition at 10 µM [2] [%]	Structure (SMILES)
88.4		CCn1c(OC)nnc1[C@@H](C)NS(=O)(=O)c1ccsc1 [Compound 342]
88.5		CCn1c(OC)nnc1[C@@H](C)NS(=O)(=O)c1ccc(-c2cnco2)s1 [Compound 345]
38.5		CCn1c(OC)nnc1[C@@H](C)NS(=O)(=O)c1ccc(-c2cnco2)cc1 [Compound 346]
23.3		CCCCNC(=O)Nc1ccc(S(=O)(=O)N[C@H](C)c2nnc(OC)n2CC)cc1 [Compound 353]
85.6		CCn1c(OC)nnc1[C@@H](C)NS(=O)(=O)c1cccc(C(=O)c2ccncc2)c1 [Compound 357]
79.6		CCn1c(OC)nnc1[C@@H](C)NS(=O)(=O)c1cccc(C(=O)c2ccccn2)c1 [Compound 358]
28.2		CCn1c(OC)nnc1[C@@H](C)NS(=O)(=O)c1ccc(NC(=O)NC)c(Cl)c1 [Compound 362]
100		CCn1c(OC)nnc1[C@@H](C)NS(=O)(=O)c1ccc2oc(=O)ccc2c1 [Compound 363]
27		CCn1c(OC)nnc1[C@@H](C)NS(=O)(=O)c1ccc(Cl)c(S(N)(=O)=O)c1 [Compound 364]
73.4		CCn1c(OC)nnc1[C@@H](C)NS(=O)(=O)c1cccnc1 [Compound 373]
67.8		CCOc1nnc([C@@H](C)NS(=O)(=O)c2cccc(O)c2)n1CC [Compound 419]
71.3		CCn1c(OC)nnc1[C@@H](C)NS(=O)(=O)c1ncc(C)s1 [Compound 421]
47.5		CCn1c(OC)nnc1[C@@H](C)NS(=O)(=O)c1ccc(O)cc1 [Compound 422]
58.7		CCn1c(OC)nnc1[C@@H](C)NS(=O)(=O)c1ccc(C)cn1 [Compound 424]
83.6		CCn1c(OC)nnc1[C@@H](C)NS(=O)(=O)c1ccc(C)o1 [Compound 425]
82.2		CCOc1nnc([C@@H](C)NS(=O)(=O)c2cnc(C)s2)n1CC [Compound 438]
14.7		CCn1c(OC)nnc1C(CCc1ccccc1)NS(=O)(=O)c1ccc(Cl)cc1 (stereo not shown) [Compound 441]
40.2		CCn1c(OC)nnc1[C@@H](C)NS(=O)(=O)c1ccco1 [Compound 442]
	88.9	CCn1c(OC)nnc1[C@@H](CO)NS(=O)(=O)c1ccc(Cl)cc1 [Compound 483]
	88.6	CCn1c(OC)nnc1[C@H](NS(=O)(=O)c1ccc(Cl)cc1)[C@H](C)O [Compound 506]
	100	CCn1c(OC)nnc1[C@@H](C)NS(=O)(=O)c1ccc(OC)cc1 [Compound 508]
	96.3	CCOc1nnc([C@@H](C)NS(=O)(=O)c2ccc(Cl)cc2)n1C [Compound 540]
